Experimental data taken from patent publication US6946475B1, “Anticancer calcium channel blockers” (University of Virginia Patent Foundation, priority 1999, dated 2005).
Read-outs that look alike come from different tables or passages of the source.

What was measured:
[1] = system: MDA-468 (breast cancer cell); assay: Measurement of cellular proliferation, MDA-468 cells; as to Effect on proliferation of MDA-468 cells: test concentration or dose not given here; type: cell-based; conditions: for Effect on proliferation of MDA-468 cells: 48 hours, FIGS. 10-39; for IC50: MDA-468, 48 hours
Protocol: (§1) Measurement of cellular proliferation: LNCaP cells at 2.5×10^4/well or PC3 cells at 5×10^4/well, both in a final volume of 100 μl, were plated in triplicate in standard flat bottom 96 well tissue culture plates in the presence of drug or vehicle (DMSO). Unless otherwise indicated, cells were grown for 48 hours at 37° C. in a CO2 incubator. Relative cell growth was determined with the CellTiter 96 aqueous cell proliferation assay (Promega, Madison, Wis.) as described by the manufacturer using an automated plate reader. Results were calculated in a blinded fashion and are means of triplicate determinations.
(§2) For the 48 hour proliferation, cells were cultured with calcium channel antagonists or without calcium channel antagonists. The IC50 values of the calcium channel antagonists were determined.
(§3) Using the measurement cell proliferation assay described hereinabove, the cell lines Jurkat, LNCap (prostate cancer cell), PC-31 (prostate cancer cell), DU145 (prostate cancer cell), MDA-468 (breast cancer cell), MDA-36 (Breast cancer cell), MCF-7 (breast cancer cell), MIA PaCa-2 (pancreatic cancer cell), Hep G2 (liver cancer cell), A549 (non-small cell lung cancer cells), NCI H460 (non-small cell lung cancer cells), HT-29 (colon cancer cell), HCT-116 (colon cancer cell) and SK OV-3 (ovarian cancer cell) were cultured in the presence of TH-1177, TH-1205, TH-1201, TH-2109, TH-2029, TH-2043, TN-2085 and TH-2279.

[2] = system: LNCaP prostate cancer cells; assay: Measurement of cellular proliferation, LNCaP cells; as to Effect on proliferation of LNCaP cells: test concentration or dose not given here; type: cell-based, human; conditions: for Effect on proliferation of LNCaP cells: FIGS. 10-39
Protocol: as §1, §2, §3

[3] = system: PC3 prostate cancer cells; assay: Measurement of cellular proliferation, PC3 cells; type: cell-based, human; conditions: for Effect on proliferation of PC3 cells: 48 hours, FIGS. 10-39; for IC50: PC-3, 48 hours, read-out: PROLIFERATION IC50 PC-3
Protocol: as §1, §2, §3

[4] = system: Jurkat cells; assay: Measurement of cellular proliferation, Jurkat cells; type: cell-based; conditions: for Effect on proliferation of Jurkat cells: FIGS. 10-39
Protocol: as §1, §2, §3

[5] = system: MDA-361 cells (breast cancer cell); assay: Measurement of cellular proliferation, MDA-361 cells; type: cell-based; conditions: for Effect on proliferation of MDA-361 cells: 48 hours, FIGS. 10-39
Protocol: as §1, §2, §3

[6] = system: SK OV-3 (ovarian cancer cell); assay: Measurement of cellular proliferation, SK OV-3 cells; type: cell-based; conditions: SK-OV-3, 48 hours
Protocol: as §1, §2, §3

[7] = system: HCT-116 (colon cancer cell); assay: Measurement of cellular proliferation, HCT-116 cells; type: cell-based; conditions: HCT 116, 48 hours
Protocol: as §1, §2, §3

[8] = system: HT-29 (colon cancer cell); assay: Measurement of cellular proliferation, HT-29 cells; type: cell-based; conditions: HT-29, 48 hours
Protocol: as §1, §2, §3

[9] = system: MCF-7 (breast cancer cell); assay: Measurement of cellular proliferation, MCF-7 cells; type: cell-based; conditions: MCF-7, 48 hours
Protocol: as §1, §2, §3

[10] = system: MIA PaCa-2 (pancreatic cancer cell); assay: Measurement of cellular proliferation, MIA PaCa-2 cells; type: cell-based; conditions: MIA PaCa-2, 48 hours
Protocol: as §1, §2, §3

[11] = system: NCI H460 (non-small cell lung cancer cells); assay: Measurement of cellular proliferation, NCI H460 cells; type: cell-based; conditions: NCI H460, 48 hours; read-out: PROLIFERATION IC50 NCl H460
Protocol: as §1, §2, §3

[12] = system: DU145 (prostate cancer cell); assay: Measurement of cellular proliferation, DU145 cells; type: cell-based; conditions: DU 145, 48 hours
Protocol: as §1, §2, §3

[13] = system: A549 (non-small cell lung cancer cells); assay: Measurement of cellular proliferation, A549 cells; type: cell-based; conditions: A549, 48 hours
Protocol: as §1, §2, §3

[14] = system: Hep G2 (liver cancer cell); assay: Measurement of cellular proliferation, Hep G2 cells; type: cell-based; conditions: Hep G2, 48 hours
Protocol: as §1, §2, §3

[15] = LNCaP, 48 hours, read-out: PROLIFERATION IC50 LNCaP
[16] = Jurkat, 48 hours, read-out: PROLIFERATION IC50 Jurkat
[17] = MDA-361, 48 hours, read-out: PROLIFERATION IC50 MDA-361
[18] = Example 7, LNCaP, read-out: cell proliferation test of Example 6 repeated, LNCaP
[19] = Example 7, Jurkat, read-out: cell proliferation test of Example 6 repeated, Jurkat
[20] = Example 7, MDA-361, read-out: cell proliferation test of Example 6 repeated, MDA-361

Row | Structure (SMILES) | Effect on proliferation of MDA-468 cells [1] | Effect on proliferation of LNCaP cells ([2]; 48 hours) | Effect on proliferation of PC3 cells [3] | Effect on proliferation of Jurkat cells ([4]; 48 hours) | Effect on proliferation of MDA-361 cells [5] | IC50 [6] | IC50 [7] | IC50 [1] | IC50 [8] | IC50 [2, 15] | IC50 [9] | IC50 [3] | IC50 [4, 16] | IC50 [10] | IC50 [11] | IC50 [12] | IC50 [5, 17] | IC50 [13] | IC50 [14] | other results
1 | c1ccc(C(CN2CCCCC2)c2ccccc2)cc1 [MMR-64] | inhibition | inhibition | inhibition | inhibition | inhibition |  |  |  |  |  |  |  |  |  |  |  |  |  |  | 
2 | c1ccc(C(CN2CCC(COC(c3ccccc3)c3ccccc3)CC2)c2ccccc2)cc1 [MMR-70] | inhibition | inhibition | inhibition | inhibition | inhibition |  |  |  |  |  |  |  |  |  |  |  |  |  |  | 
3 | COc1ccc(CCN2CCC(COC(c3ccccc3)c3ccccc3)CC2)cc1 [TH-1087] | concentration dependent inhibition | concentration dependent inhibition | concentration dependent inhibition | concentration dependent inhibition | concentration dependent inhibition |  |  |  |  |  |  |  |  |  |  |  |  |  |  | 
4 | COc1ccc(CCN2CCCC2COC(c2ccccc2)c2ccccc2)cc1 (stereo not drawn) [TH-1113] | concentration dependent inhibition | concentration dependent inhibition | concentration dependent inhibition | concentration dependent inhibition | concentration dependent inhibition |  |  |  |  |  |  |  |  |  |  |  |  |  |  | 
5 | COc1ccc(CCN2CCCC(COC(c3ccccc3)c3ccc(Cl)cc3)C2)cc1 (stereo not drawn) [TH-1205] | concentration dependent inhibition | concentration dependent inhibition | concentration dependent inhibition | concentration dependent inhibition | concentration dependent inhibition | 33 µM | 30 µM | 13 µM | ~100 µM | 5 µM | 70 µM | 23 µM | 11 µM | 17 µM | 35 µM | 21 µM | 19 µM | 93 µM | 40 µM | 
6 | COc1ccc(CCN2CCCC2COC(c2ccccc2)c2ccc(Cl)cc2)cc1 (stereo not drawn) [TH-1211] | concentration dependent inhibition | concentration dependent inhibition | concentration dependent inhibition | concentration dependent inhibition | concentration dependent inhibition | 23 µM | 32 µM | 11 µM | ~90 µM | 3 µM | 24 µM | 17 µM | 4 µM | 17 µM | 13 µM | 13 µM | 14 µM | 41 µM | 20 µM | 
7 | COc1ccc(CCN2CCC[C@H]2COC(c2ccc(Cl)cc2)c2ccc(Cl)cc2)cc1 [TH-2019] |  |  |  |  |  | 30 µM | 31 µM | 21 µM | ~100 µM | 4 µM | 30 µM | 19 µM | 7 µM | 17 µM | 12 µM | 28 µM | 23 µM | 72 µM | 30 µM | 
8 | COc1ccc(CCN2CCC(COC(c3ccccc3)c3ccc(Cl)cc3)CC2)cc1 (stereo not drawn) [TH-2029] |  |  |  |  |  | 24 µM | 18 µM | 10 µM | ~60 µM | 5 µM | 37 µM | 18 µM | 11 µM | 17 µM | 24 µM | 17 µM | 16 µM | 26 µM | 30 µM | 
9 | COc1ccc(CCN2CCC(COC(c3ccc(Cl)cc3)c3ccc(Cl)cc3)CC2)cc1 [TH-2043] |  |  |  |  |  | 23 µM | 10 µM | 8 µM | > 100 µM | 4 µM | 29 µM | 14 µM | 8 µM | 17 µM | 10 µM | 9 µM | 13 µM | 20 µM | > 100 µM | 
10 | COc1ccc(CCCN2CCC[C@H]2COC2c3ccccc3-c3ccccc32)cc1 [TH-2085] |  |  |  |  |  | 80 µM | 50 µM | 14 µM | ~60 µM | 4 µM | 33 µM | 36 µM | 10 µM | 17 µM | 31 µM | 41 µM | 26 µM | 90 µM | 28 µM | 
11 | COc1ccccc1CCN1CCC[C@H]1COC(c1ccccc1)c1ccc(Cl)cc1 (stereo partly drawn) [TH-3104] |  |  |  |  |  |  |  |  |  |  |  |  |  |  |  |  |  |  |  | IC50 [2, 18]: 2.4 µM; IC50 [4, 19]: 3.8 µM; IC50 [5, 20]: 13 µM
12 | COc1cccc(CCN2CCC[C@H]2COC(c2ccccc2)c2ccc(Cl)cc2)c1 (stereo partly drawn) [TH-3105] |  |  |  |  |  |  |  |  |  |  |  |  |  |  |  |  |  |  |  | IC50 [2, 18]: 3.2 µM; IC50 [4, 19]: 5 µM; IC50 [5, 20]: 29 µM
